{"source": "paper PMC8466554", "about": "“Heteroaryl-Ethylenes as New Lead Compounds in the Fight against High Priority Bacterial Strains” (Antibiotics, 2021)", "key": {"CaCo-2 cells": {"test_system": "CaCo-2 cells", "assay": "MTT cytotoxicity assay", "format": "cell-based, human", "conditions": "24 h of incubation relative to untreated controls", "description": "To evaluate the biological activity of the PBn series, compounds were screened for toxicity against the colon-rectal cancer cell line CaCo-2 (ATCC HTB-37). These human cancer cells were treated with solutions of the compounds at decreasing concentrations, starting from 100 μM up to 0.01 μM. The reference compound used for these assays was 5-Fluorouracil (5-Fu), a pyrimidine analogue belonging to the family of antimetabolite. […] Briefly, human colorectal adenocarcinoma cells (CaCo-2 HTB-37^TM Colorectal Adenocarcinoma Human, American Type Culture Collection, Manassas, VA, USA) were grown in Dulbecco’s MEM (DMEM) with 10% heat-inactivated fetal bovine serum, 2 mM L-Alanyl-L-Glutamine, penicillin-streptomycin (50 units-50 μg for mL) and incubated at 37 °C in a humidified atmosphere of 5% CO2, 95% air. CaCo-2 cells were plated in 96 well pates and incubated at 37 °C. The PBn series compounds and 5-FU were prepared as a 1 mM solution in 10 mL with 0.01% DMSO. Then, 24 h after plating, cells were treated with 20 μL of each solution. Untreated cells were used as controls. […] The results were read on a multiwell scanning spectrophotometer (AF2200 plate reader, Eppendorf, Milan, Italy), using a wavelength of 569 nm."}, "S.aureus USA300-CAMRSA": {"test_system": "S.aureus USA300-CAMRSA", "assay": "MIC and MBC microtiter plate assay", "format": "cell-based, Staphylococcus aureus"}, "E. coli ATCC25922": {"test_system": "E. coli ATCC25922", "assay": "MIC and MBC microtiter plate assay, also with different inocula", "format": "cell-based, Escherichia coli"}, "[1]": {"test_system": "Gram-positive control strains", "assay": "MIC and MBC, summary over Gram-positive control strains", "format": "cell-based, S. aureus and Enterococcus spp.", "conditions": "Gram-positive control strains"}, "S.aureus ATCC29213-MSSA": {"test_system": "S.aureus ATCC29213-MSSA", "assay": "MIC and MBC microtiter plate assay", "format": "cell-based, Staphylococcus aureus"}, "[2]": {"test_system": "Gram-positive and Gram-negative ATCC strains", "assay": "MIC and MBC, summary over Gram-positive and Gram-negative strains", "format": "cell-based", "conditions": "bactericidal effect defined as MBC/MIC ≤ 4"}, "[3]": {"test_system": "E. faecalis ATCC51299-VRE", "assay": "MIC and MBC microtiter plate assay, also with different inocula", "format": "cell-based"}, "K. pneumoniae ATCC700603": {"test_system": "K. pneumoniae ATCC700603", "assay": "MIC microtiter plate assay", "format": "cell-based, Klebsiella pneumoniae"}, "S.aureus ATCC12598-MSSA": {"test_system": "S.aureus ATCC12598-MSSA", "assay": "MIC and MBC microtiter plate assay, also with different inocula", "format": "cell-based, Staphylococcus aureus"}, "[4]": {"test_system": "K. pneumoniae ATCC BAA-2814", "assay": "MIC microtiter plate assay", "format": "cell-based, Klebsiella pneumoniae", "conditions": "K. pneumoniae ATCC BAA-2814 (MDR strain)"}, "P. aeruginosa ATCC27853": {"test_system": "P. aeruginosa ATCC27853", "assay": "MIC microtiter plate assay", "format": "cell-based, Pseudomonas aeruginosa"}, "[5]": {"test_system": "E. faecalis ATCC29212-VSE", "assay": "MIC and MBC microtiter plate assay", "format": "cell-based"}, "S.aureus Mu50-VISA": {"test_system": "S.aureus Mu50-VISA", "assay": "MIC and MBC microtiter plate assay", "format": "cell-based, Staphylococcus aureus"}, "A. baumannii ATCC17978": {"test_system": "A. baumannii ATCC17978", "assay": "MIC and MBC microtiter plate assay, also with different inocula", "format": "cell-based, Acinetobacter baumannii", "conditions": "A. baumannii ATCC17978"}, "S. aureus ATCC29213": {"test_system": "S. aureus ATCC29213", "set-up": "method as in earlier work", "conditions": "library for the QSAR model, ref [1]; cited from earlier work"}, "[6]": {"conditions": "E. faecalis ATCC51299-VRE, value in brackets"}, "[7]": {"conditions": "S.aureus ATCC12598-MSSA, value in brackets"}}, "note": "pIC50: −log10 of the molar value. Where “and” joins values, the source holds several entries; their conditions need not be identical. Identical values can stand only once. Like-named read-outs stand apart in the source and are kept apart here.", "data": [{"smiles": "CCCCN(CCCC)c1ccc(-c2ccc(C=C3CCCc4c[n+](CC)ccc43)s2)s1.[I-]", "note": "[PB8]", "values": [{"measurement": "pIC50", "setting": "CaCo-2 cells", "result": 5.30}, {"measurement": "MBC", "setting": "S.aureus USA300-CAMRSA", "result": 4, "unit": "µg/mL"}, {"measurement": "MIC", "setting": "S.aureus USA300-CAMRSA", "result": 2, "unit": "µg/mL"}, {"measurement": "MBC", "setting": "S.aureus USA300-CAMRSA; value in brackets", "result": 6.91, "unit": "µM"}, {"measurement": "MIC", "setting": "S.aureus USA300-CAMRSA; value in brackets", "result": 3.46, "unit": "µM"}, {"measurement": "MIC", "setting": "E. coli ATCC25922", "result": 128, "unit": "µg/mL"}, {"measurement": "MIC", "setting": "E. coli ATCC25922; value in brackets", "result": 221.22, "unit": "µM"}, {"measurement": "comparison between MIC and MBC values", "setting": "[1]", "result": "no significant differences"}, {"measurement": "MBC", "setting": "S.aureus ATCC29213-MSSA", "result": 8, "unit": "µg/mL"}, {"measurement": "MIC", "setting": "S.aureus ATCC29213-MSSA", "result": 2, "unit": "µg/mL"}, {"measurement": "MBC", "setting": "S.aureus ATCC29213-MSSA; value in brackets", "result": 13.83, "unit": "µM"}, {"measurement": "MIC", "setting": "S.aureus ATCC29213-MSSA; value in brackets", "result": 3.46, "unit": "µM"}, {"measurement": "MBC/MIC", "setting": "[2]", "result": "≤ 4"}, {"measurement": "MBC", "setting": "[3]; E. faecalis ATCC51299-VRE", "result": 4, "unit": "µg/mL"}, {"measurement": "MIC", "setting": "[3]; E. faecalis ATCC51299-VRE", "result": 4, "unit": "mg/L"}, {"measurement": "MBC", "setting": "[3]; [6]", "result": 6.91, "unit": "µM"}, {"measurement": "MIC", "setting": "[3]; [6]", "result": 6.91, "unit": "µM"}, {"measurement": "MIC", "setting": "[3]; E. faecalis ATCC51299, inoculum 1.00101 (1 × 10^1 CFU/mL)", "result": "0.5 mg/L and 0.86 μM"}, {"measurement": "MIC", "setting": "[3]; E. faecalis ATCC51299, inoculum 1.00102 (1 × 10^2 CFU/mL)", "result": "4 mg/L and 6.91 μM"}, {"measurement": "MIC", "setting": "[3]; E. faecalis ATCC51299, inoculum 1.00103 (1 × 10^3 CFU/mL)", "result": "4 mg/L and 6.91 μM"}, {"measurement": "MIC", "setting": "[3]; E. faecalis ATCC51299, inoculum 1.00104 (1 × 10^4 CFU/mL)", "result": "4 mg/L and 6.91 μM"}, {"measurement": "MIC", "setting": "[3]; E. faecalis ATCC51299, inoculum 1.00105 (1 × 10^5 CFU/mL, standard)", "result": "4 mg/L and 6.91 μM"}, {"measurement": "MIC", "setting": "[3]; E. faecalis ATCC51299, inoculum 1.00106 (1 × 10^6 CFU/mL)", "result": "8 mg/L and 13.83 μM"}, {"measurement": "MIC", "setting": "[3]; E. faecalis ATCC51299, inoculum 1.00107 (1 × 10^7 CFU/mL)", "result": "32 mg/L and 55.30 μM"}, {"measurement": "MIC", "setting": "K. pneumoniae ATCC700603", "result": "> 128", "unit": "µg/mL"}, {"measurement": "MIC", "setting": "K. pneumoniae ATCC700603; value in brackets", "result": "> 221.22", "unit": "µM"}, {"measurement": "MIC", "setting": "S.aureus ATCC12598-MSSA; S. aureus ATCC12598, inoculum 1.00101 (1 × 10^1 CFU/mL)", "result": "0.5 mg/L and 0.86 μM"}, {"measurement": "MIC", "setting": "S.aureus ATCC12598-MSSA; S. aureus ATCC12598, inoculum 1.00102 (1 × 10^2 CFU/mL)", "result": "2 mg/L and 3.46 μM"}, {"measurement": "MIC", "setting": "S.aureus ATCC12598-MSSA; S. aureus ATCC12598, inoculum 1.00103 (1 × 10^3 CFU/mL)", "result": "3.46 μM and 2 mg/L"}, {"measurement": "MIC", "setting": "S.aureus ATCC12598-MSSA; S. aureus ATCC12598, inoculum 1.00104 (1 × 10^4 CFU/mL)", "result": "2 mg/L and 3.46 μM"}, {"measurement": "MIC", "setting": "S.aureus ATCC12598-MSSA; S. aureus ATCC12598, inoculum 1.00105 (1 × 10^5 CFU/mL, standard)", "result": "2 mg/L and 3.46 μM"}, {"measurement": "MIC", "setting": "S.aureus ATCC12598-MSSA; S. aureus ATCC12598, inoculum 1.00106 (1 × 10^6 CFU/mL)", "result": "2 mg/L and 3.46 μM"}, {"measurement": "MIC", "setting": "S.aureus ATCC12598-MSSA; S. aureus ATCC12598, inoculum 1.00107 (1 × 10^7 CFU/mL)", "result": "4 mg/L and 6.91 μM"}, {"measurement": "MBC", "setting": "S.aureus ATCC12598-MSSA; S.aureus ATCC12598-MSSA", "result": 4, "unit": "µg/mL"}, {"measurement": "MIC", "setting": "S.aureus ATCC12598-MSSA; S.aureus ATCC12598-MSSA", "result": 2, "unit": "mg/L"}, {"measurement": "MBC", "setting": "S.aureus ATCC12598-MSSA; [7]", "result": 6.91, "unit": "µM"}, {"measurement": "MIC", "setting": "S.aureus ATCC12598-MSSA; [7]", "result": 3.46, "unit": "µM"}, {"measurement": "MIC", "setting": "[4]", "result": "> 128", "unit": "µg/mL"}, {"measurement": "MIC", "setting": "[4]; value in brackets", "result": "> 221.22", "unit": "µM"}, {"measurement": "MIC", "setting": "P. aeruginosa ATCC27853", "result": "> 128", "unit": "µg/mL"}, {"measurement": "MIC", "setting": "P. aeruginosa ATCC27853; value in brackets", "result": "> 221.22", "unit": "µM"}, {"measurement": "MBC", "setting": "[5]", "result": 4, "unit": "µg/mL"}, {"measurement": "MIC", "setting": "[5]", "result": 4, "unit": "µg/mL"}, {"measurement": "MBC", "setting": "[5]; value in brackets", "result": 6.91, "unit": "µM"}, {"measurement": "MIC", "setting": "[5]; value in brackets", "result": 6.91, "unit": "µM"}, {"measurement": "MBC", "setting": "S.aureus Mu50-VISA", "result": 8, "unit": "µg/mL"}, {"measurement": "MIC", "setting": "S.aureus Mu50-VISA", "result": 2, "unit": "µg/mL"}, {"measurement": "MBC", "setting": "S.aureus Mu50-VISA; value in brackets", "result": 13.83, "unit": "µM"}, {"measurement": "MIC", "setting": "S.aureus Mu50-VISA; value in brackets", "result": 3.46, "unit": "µM"}, {"measurement": "MIC", "setting": "A. baumannii ATCC17978", "result": 128, "unit": "µg/mL"}, {"measurement": "MIC", "setting": "A. baumannii ATCC17978; value in brackets", "result": 221.22, "unit": "µM"}]}, {"smiles": "COc1cc(/C=C/c2ccc(O)c(O)c2)cc(OC)c1", "note": "[[33]-1]", "values": [{"measurement": "MIC", "setting": "S. aureus ATCC29213", "result": 128, "unit": "µg/mL"}]}]}
